{"source": "paper PMC9897792", "about": "“Discovery of novel 2-(4-(benzyloxy)-5-(hydroxyl) phenyl) benzothiazole derivatives as multifunctional MAO-B inhibitors for the treatment of Parkinson’s disease” (Journal of Enzyme Inhibition and Medicinal Chemistry, 2023)", "format_in_all_cases": "cell-based", "key": {"PC-12 cells [1]": {"test_system": "PC-12 cells", "test": "Cytotoxicity towards PC-12 cells (MTT)", "settings": "at the concentration of 10.0 µM", "protocol": "(§1) MTT method was used to detect the in vitro neuroprotective effect of 3h on H2O2 induced PC-12 cells injury, with resveratrol as positive control. Firstly, the cytotoxicity of 3h to PC-12 cells was measured. […] […].\n(§2) 3-(4,5-dimethylthiazol-2-yl)-2,5-diphenyltetrazolium bromide (MTT) method was conducted to measure the in vitro neuroprotective effect of 3h[44]. Firstly the cytotoxicity of 3h towards PC-12 cells was detected. In detail, PC-12 cells were seeded into 96-well cell culture plate in DMEM (100 µL, 1 × 10^5 cells per mL) firstly. Then, these cells were incubated at 37 °C for 24 h. After incubation, test compound solutions (10 µL) were added to the plate, and the mixture was incubated for another 2 h at 37 °C. Then, MTT solution (100 µL, 5 mg/ml in PBS) was added to each well, which would be incubated at 37 °C for final 4 h. After the final incubation, the supernatants were removed, and the formazan was dissolved in DMSO (150 µL). Then, the absorbance at 490 nm was determined by using a Varioskan Flash Multimode Reader (Thermo Scientific). As for the assay to evaluate the neuroprotective effect of 3h, the procedures were almost similar, but after the incubation of cells with 3h, H2O2 (100 µM) was added and the mixture was further incubated for 24 h."}, "PC-12 cells [2]": {"test_system": "PC-12 cells", "test": "Neuroprotective effect on H2O2 induced PC-12 cells injury (MTT)", "settings": "10.0 µM; H2O2 100 µM (model 50.1%)", "protocol": "as §1, §2"}, "BV-2 cells": {"test_system": "BV-2 cells", "test": "Cytotoxicity towards BV-2 cells with or without LPS (MTT)", "settings": "up to 10.0 µM in the presence or absence LPS (1.0 µg/mL)", "protocol": "The in vitro anti-neuroinflammatory activity of 3h was detected by using LPS-induced inflammation mode in BV-2 cells, with resveratrol as the positive control compound[45]. The cytotoxicities of resveratrol and 3h to BV-2 cells were firstly detected by MTT method.\nFirstly, the MTT method was carried out to determine the cytotoxicity of 3h towards BV-2 cell line[45]. BV-2 cells in the logarithmic phase were seeded into 96-well cell culture plate, followed by the incubation at 37 °C for 24 h at the atmosphere of 5% CO2. After incubation, the culture was replaced by fresh one (90 µL without serum), and test compound solution (10 µL) was added. Then, the mixture was incubated for another 30 min, and MTT (100 µL, 0.5 mg/ml in PBS) was added to each well. After the final incubation at 37 °C for 4 h, the supernatants were removed, and the formazan was dissolved in 200 µL of DMSO. Then, the absorbance at 490 nm was determined by using a Varioskan Flash Multimode Reader (Thermo Scientific). As for the method to evaluate the cytotoxicity of 3h towards LPS-stimulated BV-2 cells, the procedures were almost similar, but after the incubation of cells with 3h, LPS (10 µL, 1.0 µg/mL) was added, and the mixture was further incubated for 24 h."}, "[3]": {"test_system": "NO release in LPS-activated BV-2 microglia cells", "test": "LPS-induced NO release in BV-2 cells (Griess method)", "settings": "Mus musculus, 10.0 µM, LPS 1.0 µg/mL, read-out: inhibitory rate of LPS-induced NO release", "protocol": "Then, Griess method was performed to measure the inhibitory effect of 3h on LPS-induced NO release in BV-2 cells. […] It reflected that LPS could induce the activation of BV-2 cells and induce neuroinflammation.\n(§3) ELISA and Griess reaction methods were performed to detect the inhibitory effect of 3h on the release of TNF-α and NO in LPS-stimulated BV-2 cells[46]^,[47]. BV-2 cells in the logarithmic phase were seeded into 96-well cell culture plate, and these cells were incubated at 37 °C for 24 h at the atmosphere of 5% CO2. After incubation, the culture solution was replaced by fresh one (90 µL without serum), and test compound solution (10 µL) was added. After addition, the plate was incubated for 30 min, then LPS (10 µL, 1.0 µg/ml in PBS) was added to each well, and the mixture would be incubated for another 24 h at 37 °C. After the final incubation, the supernatants were taken out to measure the level of TNF-α and NO according to the procedures depicted on the kits (kits were purchased from Nanjing Jiancheng Bioengineering Institute)."}, "[4]": {"test_system": "TNF-α production in LPS-activated BV-2 microglia cells", "test": "LPS-induced TNF-α production in BV-2 cells (ELISA)", "settings": "Mus musculus, 10.0 µM, LPS 1.0 µg/mL, read-out: inhibition rate of LPS-induced TNF-α production", "protocol": "ELISA method was carried out to detect the inhibitory effects of 3h on LPS-induced TNF-α production. As shown in Figure 8(B), the level of TNF-α expression was dramatically raised when BV-2 cells were exposed to LPS (1.0 µg/mL).\nas §3"}, "[5]": {"test_system": "ROS release in LPS-treated BV-2 cells", "test": "LPS-induced ROS release in BV-2 cells (DCFH-DA probe)", "settings": "concentration not given, LPS 1.0 µg/mL", "protocol": "The inhibitory effect of 3h on LPS-induced ROS release in BV-2 cells in vitro was detected by using 2′,7′-dichlorofluorescein diacetate (DCFH-DA) as probe to quantify the ROS level in LPS-treated BV-2 cells. Noticeably, the fluorescence intensity of control group was relatively low, indicating low level of ROS. […] The fluorescence values were further detected by using microplate reader (Figure 9(B)), and then the inhibition rates were calculated. […] BV-2 cells were incubated with test compound solution (10 µL) for 30 min, then LPS (10 µL, 1.0 µg/ml in PBS) was added to each well, and each well would be incubated for another 30 min at 37 °C. […] The fluorescence was measured with excitation and emission wavelengths at 488 and 525 nm on an inverted fluorescence microscope."}}}
{"compound": "Oc1ccc(/C=C/c2cc(O)cc(O)c2)cc1", "note": "[resveratrol, reference compound]", "values": [{"measurement": "PC-12 cell viability (cytotoxicity)", "setting": "PC-12 cells [1]", "result": "did not significantly alter the PC-12 cell viability"}, {"measurement": "cell viability of H2O2-injured PC-12 cells", "setting": "PC-12 cells [2]", "result": "64.3 % of control value"}, {"measurement": "BV-2 cell viability (cytotoxicity)", "setting": "BV-2 cells", "result": "did not significantly alter the BV-2 cell viability"}, {"measurement": "inhibition at 10 µM", "setting": "[3]", "result": 51.2, "unit": "%"}, {"measurement": "inhibition at 10 µM", "setting": "[4]", "result": 50.3, "unit": "%"}, {"measurement": "inhibition rate of LPS-induced ROS release", "setting": "[5]", "result": 59.8, "unit": "%"}]}
